Measured values taken from US11957712B2, “Application of a hydrogel in the preparation of products for the treatment of bacterial infections” (Shaanxi University of Science & Technology, priority 2022, dated 2024).

Tests used:
Vibrio Parahemolyticus = conditions: 16 μM ferrous sulfate, 12 h, FIG. 8B
Procedure: (§1) Ferrous sulfate aqueous solutions were configured to a final concentration of 16 μM; and prepare 10^8 CFU/mL of Escherichia coli, Listeria monocytogenes, Vibrio Parahemolyticus, Enterobacter sakazakii, Staphylococcus aureus and MRSA. A 96-well plate assay was performed to determine the susceptibility of six pathogenic bacteria to ferrous sulfate, and after 12 h treatment, the total number of bacterial colonies was determined in a drop-plate assay to further investigate the effect of ferrous ions on their inhibition.

Staphylococcus aureus [1] = conditions: 16 μM ferrous sulfate, 12 h, 10^8 CFU/mL
Procedure: as §1

MRSA = conditions: 16 μM ferrous sulfate, 12 h, 10^8 CFU/mL
Procedure: as §1

Escherichia coli = conditions: 16 μM ferrous sulfate, 12 h, FIG. 8B
Procedure: as §1

Enterobacter sakazakii = conditions: 16 μM ferrous sulfate, 12 h, FIG. 8B
Procedure: as §1

Listeria monocytogenes = conditions: 16 μM ferrous sulfate, 12 h, FIG. 8B
Procedure: as §1

Staphylococcus aureus [2] = conditions: 100 μM, 12 h treatment, approximately 10^8 CFU/mL
Procedure: To verify the antibacterial activity of ferrous ions against Staphylococcus aureus, the following tests were done: • 1. […] 96-well plate method was used to test the drug sensitivity of 9 ferrous salts against Staphylococcus aureus (approximately 10^8 CFU/mL). After 12 h treatment, the total number of bacterial colonies was determined followed by drop plate method to further investigate the antibacterial effect of iron ions on Staphylococcus aureus.

S. aureus = system: S. aureus
Procedure: Ferrous sulfate aqueous solutions were configured to final concentrations of 1, 4, 16, and 64 μM, respectively, and ampicillin and vancomycin as positive controls were configured to 100 μg/mL, as well as ultrapure water without ferrous sulfate was set as a blank control group. Then 10^8 CFU/mL of S. aureus and MRSA were prepared. The cell suspensions were added with FeSO4 at final concentrations of 0, 1, 4, 16, 64 μM, respectively, and incubated at 37° C. 200 rpm for 12 h. […] After incubation, S. aureus cells were collected by centrifugation, suspended in 1 mL of normal saline solution, and subjected to 10-fold serial dilutions. Finally, 6 dilutions of each condition were plated on TSB agar, and the colony form units (CFU) were enumerated after incubation at 37° C. overnight.

With ferrous sulfate the bactericidal effect (Vibrio Parahemolyticus) was “strong bactericidal effect”, the “survival rate of S. aureus” value (Staphylococcus aureus [1]) was “less than 0.001%” and the “survival of MRSA” value (MRSA) was “less than 0.01%”. The bactericidal effect (Escherichia coli) was “strong bactericidal effect”, the bactericidal effect (Enterobacter sakazakii) was “strong bactericidal effect” and the bactericidal effect (Listeria monocytogenes) was “strong bactericidal effect”. For the same substance, the “inhibition of the growth of S. aureus” value (Staphylococcus aureus [2]) was roughly 100%, the “MBC (lowest concentration required to kill 99.99% cells of S. aureus)” value (S. aureus; 37° C., 200 rpm, 12 h, 10^8 CFU/mL) was 16 µM and the bactericidal rate (S. aureus; at 16 μM (MBC)) was 99.99%.
